Measured values from PubChem BioAssay AID1996.
Values after ≈ are worked out from the molar mass of the structure shown.

Conditions: buffer; pH 7.4; 200.0 µM

| SMILES | solubility kinetic [µg/mL] |
| --- | --- |
| NS(=O)(=O)c1ccc(CNC(=O)c2ccc3c(c2)OCO3)cc1 | > 50.2 |
| O=C1CC(=O)N(c2ccccc2)C(=O)N1c1ccccc1 | > 42 |
| N=C1C(c2nc3ccccc3[nH]2)=C(O)CN1C1CCCCC1 | 0.4 (≈ 1.35 µM) |
| CC(NC(=O)CC1CCCCC1)c1ccccc1 (centres undefined) | > 36.8 |
| CCc1ccc(NC(=O)/C(C#N)=C/c2ccncc2)cc1 | 8.8 (≈ 31.7 µM) |
| CC1CN(c2ccnc3cc(Cl)ccc23)CC(C)O1 (centres undefined) | > 41.5 |
| CC1CCN(C2=NC(=O)/C(=C/c3ccccc3F)S2)CC1 | 14.3 (≈ 47 µM) |
| O=C(COC(=O)c1cc(S(=O)(=O)N2CCOCC2)ccc1F)c1ccccc1 | > 61.1 |
| CCOc1cc(N2CCOCC2)c(OCC)cc1NC(=O)c1cccc(S(=O)(=O)N2CCOCC2)c1 | > 77.9 |
| COc1ccc(C(=O)CSc2[nH]c(=O)cc(C(F)(F)F)c2C#N)cc1 | > 55.2 |
| COc1cccc(N2CCN(C(=O)c3cc4ccc(OC)cc4[nH]3)CC2)c1 | 1.6 (≈ 4.38 µM) |
| COc1ccc(C2(C)CC(C)(C)Nc3ccccc32)cc1 (centres undefined) | 5.7 (≈ 20.3 µM) |
| COc1ccc(C(=O)Cn2c(=O)oc3ccc(C)cc32)cc1 | < 0.6 |
| Cc1ccc(C)c(NC(=O)CN(C)C(=O)C2CCCC2)c1 | > 43.3 |
| Cn1c(-c2ccccn2)[n+](C)c2ccccc21.[Cl-] | > 39 |
| CC(=O)Nc1ccc(/C=C/C(=O)c2ccc3c(c2)OCCO3)cc1 | 5.2 (≈ 16.1 µM) |
| CC1(C)N=c2ccc([N+](=O)[O-])c(N)c2=[N+]1[O-] | 30 (≈ 135 µM) |
| N#Cc1ccc(-c2nc3ccccc3c(=O)n2O)cc1 | > 39.5 |
| O=C1OC(Nc2nc(-c3ccc(F)cc3)cs2)c2ccccc21 (centres undefined) | 1.9 (≈ 5.82 µM) |
| CN(C(=O)CCn1c(=S)oc2ccccc21)C1CCCCC1 | > 47.8 |
| Cc1ccccc1NC(=O)Nc1cnccn1 | 12.4 (≈ 54.3 µM) |
| CCC(C)c1ccccc1NC(=S)NC(=O)c1ccco1 (centres undefined) | 6 (≈ 19.8 µM) |
| Cc1csc(NC(=O)c2ccc(COc3ccccc3)o2)n1 | 3.3 (≈ 10.5 µM) |
| Cc1cccn2c(=O)c(/C=N/O)c(Nc3ccccc3F)nc12 | 0.2 (≈ 0.64 µM) |

| SMILES | solubility kinetic [µg/mL] |
| --- | --- |
| CCc1cc(=S)n2c([nH]c3ccccc32)c1C#N | 32.6 (≈ 129 µM) |
| Cc1cccc(NC(=O)c2cc3ccccc3oc2=O)c1 | < 0.6 |
| COc1ccc(C2c3ccc(O)cc3Oc3ncn(CC(C)C)c(=N)c32)cc1 (centres undefined) | 53.8 (≈ 143 µM) |
| COc1cccc(/C=N/NC(=O)CNC(=O)COc2ccccc2)c1O | > 53.6 |
| Cc1cccc(NC(=S)NC23CN4CN(CN(C4)C2)C3)c1C | 46.8 (≈ 147 µM) |
| CC1CCN(C(=O)CSc2nc(C3CC3)nc3ccccc23)CC1 | > 51.2 |
| N#CCCN(Cc1cccnc1)C(=S)NC(=O)c1ccccc1 | > 48.7 |
| Cc1cc(=O)oc2cc(NC(=O)c3cccc(F)c3)ccc12 | < 0.6 |
| Fc1ccc2nc(Nc3ccccc3)sc2c1 | 0.5 (≈ 2.05 µM) |
| Cc1ccc(CN(C)c2ccc(S(=O)(=O)N3CCCC3)cn2)cc1 | 12.5 (≈ 36.2 µM) |
| O=C(NCCCn1ccnc1)/C(=C/c1cccnc1)NC(=O)c1ccco1 | > 54.8 |
| Cn1c(=O)c2ccccc2n(CC(=O)Nc2ccc3c(c2)OCCO3)c1=O | 4.6 (≈ 12.5 µM) |
| Cc1ccc(-c2csc3nc[nH]c(=O)c23)cc1 | 19.5 (≈ 80.5 µM) |
| CCC1CCCCN1C(=O)COC(=O)COc1ccc(Br)cc1 (centres undefined) | > 57.6 |
| CCOC(=O)Cc1csc(NC(=O)Cc2ccccc2)n1 | > 45.7 |
| O=C(Nc1ccc(NC(=O)c2cccs2)cc1)c1ccccc1 | < 0.3 |
| COc1cccc(CC(CC(=O)O)C(=O)Nc2cc(C)ccc2C)c1 (centres undefined) | 35.7 (≈ 105 µM) |
| Clc1ccc(-c2nc3ccccn3c2CN2CCSCC2)cc1 | 1.9 (≈ 5.53 µM) |
| CC1CCC(NC(=O)CNC(=O)c2cccs2)CC1 (centres undefined) | > 42.1 |
| O=C1Cc2ccccc2C(c2c(Cl)cccc2Cl)N1 (centres undefined) | < 0.6 |
| Cc1ccc(NC(=O)c2cnccn2)c(Br)c1 | 4.2 (≈ 14.4 µM) |
| CCCCNC(=O)C1CCC(=O)N1CCc1ccccc1 (centres undefined) | 42.4 (≈ 147 µM) |
| CC(=O)O.NCC(c1ccco1)c1c[nH]c2ccccc12 (centres undefined) | 21.5 |
| O=[N+]([O-])c1cccc(S(=O)(=O)NCCc2cn3ccccc3n2)c1 | 48.5 (≈ 140 µM) |

| SMILES | solubility kinetic [µg/mL] |
| --- | --- |
| Cc1cc(C)cc(OCC(=O)NC(C)c2ccccc2)c1 (centres undefined) | 28.8 (≈ 102 µM) |
| COC(=O)c1ccc(C(=O)O)nc1 | 21.5 (≈ 119 µM) |
| Cc1csc(SC(C)C(=O)Nc2ccccc2C)n1 (centres undefined) | > 43.9 |
| COc1ccc(NCC(=O)Nc2cccc(S(=O)(=O)N3CCCC3)c2)cc1Cl | 13.6 (≈ 32.1 µM) |
| Cl.O=[N+]([O-])c1ccc(OCC(O)CNC2CCCC2)cc1 (centres undefined) | > 47.5 |
| c1ccc(-c2nnc(-c3ccccn3)c(-c3ccccn3)n2)nc1 | > 46.8 |
| Cc1ccc2c(C(=O)CN3CCN(C(=O)c4ccco4)CC3)c(C)[nH]c2c1 | 14.6 (≈ 40 µM) |
| CC(=O)c1ccc(Nc2nc(C)cc(C)n2)cc1 | 5.6 (≈ 23.2 µM) |
| Cc1ccc2c(c1)C1CN(C)CCC1N2S(=O)(=O)c1ccccc1F (centres undefined) | > 54.1 |
| O=C(NCCNC(=O)c1ccccc1)c1ccccc1 | > 40.2 |
| CN(C(=O)Cn1cc(C#N)c2ccccc21)c1ccccc1 | 7.4 (≈ 25.6 µM) |
| O=C(COc1ccc2ccc(=O)oc2c1)N1CCc2ccccc21 | < 0.7 |
| O=C(NC(=S)NCc1nc2ccccc2[nH]1)c1ccc(F)cc1 | 45.3 (≈ 138 µM) |
| COc1ccc(C(C)NC(=O)C2CCCC2)cc1 (centres undefined) | > 37.1 |
| O=C1CCC(C(=O)NCc2ccc3c(c2)OCO3)N1 (centres undefined) | > 39.3 |
| Cc1sc(N2C(=O)C3C(C2=O)[C@H]2C=C[C@@H]3C2)c(C#N)c1C (some centres undefined) | 25.6 (≈ 85.8 µM) |
| C#CCn1cccc(C(=O)Nc2ccc(OC)cc2)c1=O | 6.3 (≈ 22.3 µM) |
| COC(=O)c1sccc1NC(=O)Nc1ccccc1OC | 40 (≈ 131 µM) |
| COC(=O)C1(C(C[N+](=O)[O-])c2ccco2)C(=O)NCC1c1ccccc1 (centres undefined) | 11.1 (≈ 31 µM) |
| CC(C)(CN1CCCC1)NS(=O)(=O)c1ccccc1.Cl | > 47.8 |
| NC(=O)C1c2ccccc2Oc2ccccc21 | 24.8 (≈ 110 µM) |
| O=C(CCNC(=O)c1ccccc1Cl)Nc1ccc(S(=O)(=O)Nc2nccs2)cc1 | > 69.7 |
| O=C(NC(=S)N1CCCCCC1)c1ccccc1Cl | > 44.5 |
| CCOC(=O)c1nc(NCc2ccccc2)sc1C | 9.5 (≈ 34.4 µM) |

| SMILES | solubility kinetic [µg/mL] |
| --- | --- |
| COc1ccc(/C=N\Nc2ncc(F)c(N3CCOCC3)n2)cc1OC | > 54.2 |
| CCCCc1nc(C(N)=O)c2[nH]c(=O)n(-c3ccccc3F)c2n1 | 3.7 (≈ 11.2 µM) |
| Nc1nnc(SCC(=O)NC2CCCCCC2)s1 | > 43 |
| CCCCn1c(N)c(N(CCC(C)C)C(=O)COC(=O)/C=C/c2ccc(F)cc2)c(=O)[nH]c1=O | 8.5 (≈ 17.9 µM) |
| O=C1NC(=O)N(Cc2ccc(F)cc2)C(=O)/C1=C\c1ccoc1 | 46.6 (≈ 148 µM) |
| CCOC(=O)c1ccc(N2C(=O)CC(Sc3nc(C)cc(C)n3)C2=O)cc1 (centres undefined) | 4 (≈ 10.4 µM) |
| COc1ccc2oc(=N)c(C(=O)Nc3ccccc3Cl)cc2c1 | 0.8 (≈ 2.43 µM) |
| Cc1cccc(C(=O)OCC(=O)Nc2ccc3c(c2)OCCO3)c1 | 8.2 (≈ 25.1 µM) |
| COc1nc2c(c(-c3cc(Br)cs3)c1C#N)Cc1ccccc1-2 | < 0.4 |
| COCCCNC(=S)N1CCC(NC(=O)c2ccco2)CC1 | > 48.8 |
| Cc1cc2c(cc1C)N(Cc1ccc(Cl)cc1)C1=NCCCN12 | > 48.9 |
| O=C(NCC(=O)N1CCCC(C(F)(F)F)C1)c1ccco1 (centres undefined) | > 45.6 |
| COc1ccc(C=O)cc1Cn1ccnc1.Cl | > 37.9 |
| O=C(O)/C=C/C(=O)Nc1ccc(S(=O)(=O)Nc2nccs2)cc1 | > 53 |
| CC(C)C(=O)N1CCN(c2ccccc2NC(=O)c2ccco2)CC1 | 48 (≈ 141 µM) |
| COc1ccc(Cn2cnc([N+](=O)[O-])c2)cc1[N+](=O)[O-] | > 41.7 |
| Cc1sc2ncnc(N)c2c1C | > 26.9 |
| Nc1nonc1C(=O)NCCNc1ncccc1[N+](=O)[O-] | 30.2 (≈ 103 µM) |
| Cc1occc1C(=O)O/N=C(\N)c1ccc(Cl)cc1 | 9.1 (≈ 32.7 µM) |
| Cc1cccc(NC2=C(Cl)C(=O)OC2OC(=O)c2ccco2)c1 (centres undefined) | 35.1 (≈ 105 µM) |
| CCc1ccccc1NS(=O)(=O)Cc1ccccc1 | 40.2 (≈ 146 µM) |
| Cc1cc(NC(=O)C2CC(=O)N(c3ccccc3C)C2)no1 (centres undefined) | > 44.9 |
| O=C(NNC(=O)c1ccncc1)Nc1cccc(C(F)(F)F)c1 | > 48.6 |
| C=CCN(C(=O)Nc1ccc2c(c1)nc(C)n2C)c1ccccc1 | > 48.1 |

| SMILES | solubility kinetic [µg/mL] |
| --- | --- |
| COc1ccc(NC(=O)C(Cc2ccccc2)n2cccc2)c(OC)c1 (centres undefined) | 12.9 (≈ 36.8 µM) |
| Cc1ccc(C)c(NC(=O)CCOc2ccccc2)c1 | 3.7 (≈ 13.7 µM) |
| O=C(Cc1ccc(Br)cc1)Nc1ccccc1N1CCCC1 | 2.6 (≈ 7.24 µM) |
| Cc1cccc(Nc2nc(-c3ccc(O)c(O)c3)cs2)n1 | 4.5 (≈ 15 µM) |
| Cc1ccccc1NS(=O)(=O)c1ccc2oc(=O)ccc2c1 | > 47.3 |
| COc1ccc(CNC(=O)C(Cc2ccccc2)n2cccc2)cc1 (centres undefined) | 7.8 (≈ 23.3 µM) |
| COc1cccc(NC(=O)C(c2ccccc2)N2CCNC(=O)C2)c1 (centres undefined) | > 50.9 |
| COc1ccc(-c2csc(Nc3ccccn3)n2)cc1 | < 0.2 |
| CC(C)C(NS(=O)(=O)c1cc(C(=O)O)ccc1Cl)C(=O)O (centres undefined) | 44.7 (≈ 133 µM) |
| Cc1cccc(NC(=O)c2ccc3c(c2)C(=O)N(c2ccccn2)C3=O)c1C | 2.2 (≈ 5.92 µM) |
| Cc1cc(C)c2cc(C(=O)Nc3ccc4c(c3)OCO4)[nH]c2c1 | < 0.3 |
| COC(=O)c1ccccc1N=Nc1c(N)n[nH]c1N | > 39 |
| Cc1c(C(=O)Cc2ccccc2)n(C)c2ccccc12 | 2.5 (≈ 9.49 µM) |
| Cc1ccsc1C(=O)NCc1ccccc1Cl | > 39.9 |
| Nc1c(C(=O)O)cnn1-c1ccc([N+](=O)[O-])cc1 | > 37.2 |
| Nc1c(Cl)ncnc1NCC(O)CO (centres undefined) | > 32.8 |
| Cc1ccsc1CN(C)CC(=O)Nc1ccccc1C(=O)NC1CC1 | > 53.6 |
| Brc1ccc(COc2cccc3cccnc23)cc1 | 2.3 (≈ 7.32 µM) |
| O=C(CCN1N=C(c2ccccc2)CCC1=O)NC1CCCC1 | > 47 |
| COCCNC(=S)N(CCc1c(C)[nH]c2ccc(C)cc12)Cc1ccco1 | 15.2 (≈ 39.4 µM) |
| O=C(Oc1ccc(Br)cc1)c1cccnc1 | 34.3 (≈ 123 µM) |
| O=C(COC(=O)C1CCCCC1)Nc1cccc(F)c1 | > 41.9 |
| C=CC(=O)NN(C)c1ncc(C(F)(F)F)cc1Cl | > 41.9 |
